Source: the supplement of paper PMC6045584
± gives the standard deviation of the averaged measurements.

How the values were obtained:
[1] = compound: CCN(CC)CCCCNc1ncc2cc(-c3cc(OC)cc(OC)c3)c(NC(=O)NC(C)(C)C)nc2n1; assay: surviving fraction relative to DMSO-only wells; higher = less growth inhibition; details: exposure time: 5 days
How it was run: (§1)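 Five days of continuous inhibitor exposure, at 0.5, 1, 5, 10, 50, 100, 500 and 1000 nM, followed a 24-hour period after log-phase tumour cell lines were seeded at 250–500 cells per well in 384-well plates. Surviving fraction was derived from CellTiter-Glo luminescence relative to the median of DMSO-only wells. Plates were read after 10 minutes at room temperature, and lines screened three times were kept only if replicate Pearson r >0.7 and median Z' >0.3.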

SALINOMYCIN = compound: CC[C@@H](C(=O)[C@@H](C)[C@@H](O)[C@H](C)[C@@H]1O[C@@H]([C@@H](CC)C(=O)O)CC[C@@H]1C)[C@H]1O[C@]2(C=C[C@@H](O)[C@]3(CC[C@@](C)([C@H]4CC[C@](O)(CC)[C@H](C)O4)O3)O2)[C@H](C)C[C@@H]1C [SALINOMYCIN]; assay: as above; details: exposure time: 5 days
How it was run: as §1

Test System | surviving fraction ([1]; 0.5 nM) | surviving fraction ([1]; 1 nM) | surviving fraction ([1]; 5 nM) | surviving fraction ([1]; 10 nM) | surviving fraction ([1]; 50 nM) | surviving fraction ([1]; 100 nM) | surviving fraction ([1]; 500 nM) | surviving fraction ([1]; 1000 nM) | surviving fraction (SALINOMYCIN; 0.5 nM) | surviving fraction (SALINOMYCIN; 1 nM) | surviving fraction (SALINOMYCIN; 5 nM) | surviving fraction (SALINOMYCIN; 10 nM) | surviving fraction (SALINOMYCIN; 50 nM) | surviving fraction (SALINOMYCIN; 100 nM) | surviving fraction (SALINOMYCIN; 500 nM) | surviving fraction (SALINOMYCIN; 1000 nM)
22RV1 PROSTATE | 1 ± 0.029 | 1.02 ± 0.048 | 0.964 ± 0.011 | 1.01 ± 0.013 | 0.997 ± 0.034 | 1.02 ± 0.044 | 1.04 ± 0.04 | 1.05 ± 0.036 | 1.01 ± 0.075 | 0.987 ± 0.053 | 1 ± 0.06 | 0.942 ± 0.059 | 0.817 ± 0.031 | 0.448 ± 0.038 | 0.195 ± 0.021 | 0.125 ± 0.015
93VU HEADNECK | 0.952 ± 0.063 | 0.975 ± 0.062 | 1.02 ± 0.1 | 1.03 ± 0.11 | 1.03 ± 0.095 | 0.884 ± 0.18 | 1.01 ± 0.085 | 0.949 ± 0.076 | 0.887 ± 0.048 | 0.885 ± 0.11 | 1.01 ± 0.04 | 1.05 ± 0.023 | 0.976 ± 0.08 | 0.91 ± 0.053 | 0.304 ± 0.041 | 0.177 ± 0.005
143B BONE | 0.941 ± 0.078 | 0.997 ± 0.026 | 0.954 ± 0.068 | 1.02 ± 0.032 | 1.01 ± 0.016 | 1.01 ± 0.061 | 0.97 ± 0.054 | 0.995 ± 0.038 | 0.98 ± 0.044 | 0.99 ± 0.026 | 1.02 ± 0.023 | 1.01 ± 0.027 | 1.03 ± 0.018 | 1.03 ± 0.035 | 0.9815 ± 0.00071 | 0.763 ± 0.028
A549 LUNG | 0.975 ± 0.015 | 0.97 ± 0.049 | 0.949 ± 0.036 | 0.952 ± 0.042 | 0.963 ± 0.01 | 1.032 ± 0.0046 | 1.006 ± 0.0065 | 1.05 ± 0.061 | 0.944 ± 0.028 | 0.9123 ± 0.005 | 0.95 ± 0.033 | 0.907 ± 0.022 | 1.03 ± 0.028 | 0.97 ± 0.03 | 0.729 ± 0.018 | 0.528 ± 0.033
ASKA SYNOVIAL | 1.04 ± 0.044 | 1.14 ± 0.029 | 1.19 ± 0.046 | 1.09 ± 0.091 | 1.14 ± 0.046 | 1.18 ± 0.065 | 1.09 ± 0.086 | 0.992 ± 0.013 | 1.05 ± 0.088 | 0.926 ± 0.086 | 1.02 ± 0.1 | 0.582 ± 0.048 | 1.14 ± 0.034 | 1.03 ± 0.016 | 0.797 ± 0.073 | 0.441 ± 0.037
BT20 BREAST | 1.17 ± 0.13 | 1.17 ± 0.065 | 1.09 ± 0.26 | 1.17 ± 0.09 | 1.17 ± 0.12 | 1.12 ± 0.029 | 1.53 ± 0.17 | 1.64 ± 0.057 | 0.964 ± 0.16 | 1.05 ± 0.14 | 1.12 ± 0.076 | 1.3 ± 0.25 | 1.32 ± 0.19 | 1.19 ± 0.25 | 1.22 ± 0.31 | 1.13 ± 0.3
BT549 BREAST | 1.16 ± 0.13 | 1.16 ± 0.11 | 1.15 ± 0.11 | 1.19 ± 0.077 | 1.18 ± 0.17 | 1.04 ± 0.096 | 0.932 ± 0.059 | 0.843 ± 0.068 | 0.999 ± 0.033 | 1.18 ± 0.079 | 1.02 ± 0.056 | 0.93 ± 0.031 | 0.891 ± 0.35 | 0.73 ± 0.39 | 0.523 ± 0.2 | 0.341 ± 0.079
C33A CERVIX | 0.832 ± 0.044 | 0.831 ± 0.077 | 0.921 ± 0.068 | 0.914 ± 0.1 | 0.968 ± 0.1 | 0.871 ± 0.12 | 0.828 ± 0.073 | 0.814 ± 0.065 | 0.812 ± 0.13 | 0.769 ± 0.16 | 1 ± 0.12 | 1.05 ± 0.21 | 1.08 ± 0.035 | 1.08 ± 0.13 | 0.328 ± 0.024 | 0.25 ± 0.0067
CADOES1 SOFT TISSUE | 0.942 ± 0.1 | 0.905 ± 0.1 | 0.935 ± 0.21 | 0.913 ± 0.071 | 0.895 ± 0.076 | 0.9 ± 0.036 | 0.901 ± 0.056 | 1.05 ± 0.043 | 0.978 ± 0.096 | 0.959 ± 0.036 | 0.838 ± 0.14 | 0.918 ± 0.15 | 0.856 ± 0.041 | 0.454 ± 0.1 | 0.147 ± 0.0061 | 0.105 ± 0.004
CAL51 BREAST | 0.92 ± 0.063 | 0.943 ± 0.013 | 0.964 ± 0.061 | 0.961 ± 0.042 | 0.858 ± 0.035 | 0.83 ± 0.03 | 0.673 ± 0.019 | 0.6517 ± 0.0035 | 0.937 ± 0.041 | 0.86 ± 0.12 | 0.984 ± 0.018 | 0.969 ± 0.021 | 1 ± 0.017 | 0.972 ± 0.034 | 0.615 ± 0.022 | 0.359 ± 0.018
CAL72 BONE | 1.053 ± 0.0092 | 1.08 ± 0.054 | 1.08 ± 0.082 | 1.01 ± 0.024 | 0.833 ± 0.038 | 0.484 ± 0.013 | 0.281 ± 0.022 | 0.208 ± 0.026 | 1.05 ± 0.037 | 1.02 ± 0.044 | 1.04 ± 0.018 | 1.06 ± 0.027 | 1.11 ± 0.021 | 1.1 ± 0.049 | 0.647 ± 0.087 | 0.564 ± 0.031
CAL120 BREAST | 0.933 ± 0.032 | 0.918 ± 0.031 | 0.9335 ± 0.0035 | 0.928 ± 0.023 | 0.852 ± 0.029 | 0.746 ± 0.053 | 0.565 ± 0.021 | 0.537 ± 0.06 | 0.8885 ± 0.0083 | 0.893 ± 0.0056 | 0.877 ± 0.021 | 0.8868 ± 0.0073 | 0.661 ± 0.01 | 0.334 ± 0.015 | 0.088 ± 0.0061 | 0.0535 ± 0.0022
CASKI CERVIX | 0.927 ± 0.03 | 0.907 ± 0.022 | 0.953 ± 0.056 | 0.982 ± 0.042 | 0.996 ± 0.013 | 0.941 ± 0.05 | 0.751 ± 0.035 | 0.602 ± 0.014 | 0.93 ± 0.055 | 0.921 ± 0.039 | 0.868 ± 0.037 | 0.911 ± 0.038 | 0.703 ± 0.0027 | 0.583 ± 0.028 | 0.3273 ± 0.0031 | 0.289 ± 0.024
CHLA90 AUTONOMIC GANGLIA | 0.906 ± 0.053 | 1.02 ± 0.046 | 0.892 ± 0.058 | 0.9023 ± 0.0046 | 0.907 ± 0.036 | 0.912 ± 0.022 | 0.7 ± 0.035 | 0.598 ± 0.072 | 0.992 ± 0.017 | 0.9167 ± 0.0091 | 0.926 ± 0.014 | 0.396 ± 0.01 | 0.949 ± 0.069 | 0.877 ± 0.048 | 0.169 ± 0.028 | 0.0267 ± 0.00058
CME SYNOVIAL | 1.08 ± 0.089 | 1.254 ± 0.0095 | 1.24 ± 0.14 | 1.25 ± 0.16 | 1.18 ± 0.1 | 1.22 ± 0.05 | 1.06 ± 0.068 | 0.969 ± 0.11 | 1.12 ± 0.14 | 0.826 ± 0.031 | 1.06 ± 0.15 | 0.177 ± 0.069 | 1.14 ± 0.07 | 0.947 ± 0.094 | 0.351 ± 0.018 | 0.141 ± 0.0067
COLO320DM LARGE INTESTINE | 0.959 ± 0.04 | 1.14 ± 0.037 | 1.11 ± 0.08 | 1.05 ± 0.072 | 1.06 ± 0.064 | 1.1 ± 0.11 | 1.03 ± 0.068 | 1.1 ± 0.041 | 1.05 ± 0.037 | 1.04 ± 0.036 | 1.11 ± 0.026 | 0.522 ± 0.056 | 1.14 ± 0.12 | 0.966 ± 0.081 | 0.388 ± 0.0066 | 0.1 ± 0.006
DU4475 BREAST | 0.845 ± 0.2 | 0.76 ± 0.22 | 0.743 ± 0.13 | 0.795 ± 0.19 | 0.814 ± 0.16 | 0.762 ± 0.11 | 0.702 ± 0.2 | 0.703 ± 0.18 | 0.949 ± 0.23 | 0.893 ± 0.28 | 0.857 ± 0.28 | 0.9 ± 0.33 | 0.793 ± 0.27 | 0.665 ± 0.32 | 0.293 ± 0.18 | 0.17 ± 0.078
H23 LUNG | 0.958 ± 0.041 | 0.998 ± 0.065 | 0.96 ± 0.053 | 1.01 ± 0.054 | 0.983 ± 0.02 | 1.02 ± 0.013 | 1.02 ± 0.029 | 1.02 ± 0.079 | 0.969 ± 0.043 | 0.957 ± 0.055 | 0.9683 ± 0.0096 | 0.959 ± 0.04 | 1.21 ± 0.03 | 1.19 ± 0.028 | 0.622 ± 0.012 | 0.399 ± 0.007
HCC78 LUNG | 0.977 ± 0.31 | 0.856 ± 0.038 | 0.997 ± 0.23 | 0.968 ± 0.07 | 0.935 ± 0.19 | 0.917 ± 0.093 | 0.964 ± 0.097 | 0.941 ± 0.084 | 0.833 ± 0.18 | 0.693 ± 0.063 | 0.855 ± 0.17 | 0.948 ± 0.071 | 0.72 ± 0.095 | 0.697 ± 0.24 | 0.228 ± 0.014 | 0.143 ± 0.022
HCC202 BREAST | 1.05 ± 0.052 | 1.31 ± 0.39 | 1.3 ± 0.53 | 1.22 ± 0.13 | 1.27 ± 0.32 | 1.41 ± 0.073 | 1.13 ± 0.14 | 1.24 ± 0.061 | 1.39 ± 0.31 | 0.95 ± 0.16 | 0.918 ± 0.26 | 1.13 ± 0.17 | 1.03 ± 0.18 | 0.737 ± 0.16 | 0.189 ± 0.037 | 0.109 ± 0.0082
